Measured values reported in ChEMBL document CHEMBL1128481, “Synthesis, structure elucidation, and biochemical evaluation of 7 alpha- and 7 beta-arylaliphatic-substituted androst-4-ene-3,17-diones as inhibitors of aromatase” (J Med Chem, 1995).

Experiments:
Aromatase [1] = molecular target: T1, Aromatase (Homo sapiens, UniProt P11511)
T1 sequence (P11511 whole entry): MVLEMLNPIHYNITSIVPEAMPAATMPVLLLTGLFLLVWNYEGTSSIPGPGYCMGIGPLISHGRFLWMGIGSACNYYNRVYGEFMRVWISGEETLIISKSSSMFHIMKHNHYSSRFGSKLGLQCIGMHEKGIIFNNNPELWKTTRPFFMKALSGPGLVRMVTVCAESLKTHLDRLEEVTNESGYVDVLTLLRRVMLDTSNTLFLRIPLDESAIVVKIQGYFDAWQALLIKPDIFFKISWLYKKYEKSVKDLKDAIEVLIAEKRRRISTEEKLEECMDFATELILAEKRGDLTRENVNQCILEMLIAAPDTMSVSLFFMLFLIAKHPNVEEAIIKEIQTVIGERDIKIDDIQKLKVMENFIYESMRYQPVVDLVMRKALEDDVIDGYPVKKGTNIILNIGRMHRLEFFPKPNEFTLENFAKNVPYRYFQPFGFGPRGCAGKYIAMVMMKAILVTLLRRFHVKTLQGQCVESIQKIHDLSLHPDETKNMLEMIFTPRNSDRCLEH

Aromatase [2] = molecular target: T1, Aromatase; remark: listed apart in the source
Description: Apparent binding affinity for human placental Cytochrome P450 19A1

Aromatase [3] = molecular target: T1, Aromatase; remark: listed apart in the source
Description: Inhibition of human placental Cytochrome P450 19A1 at 250 nM

Aromatase [4] = molecular target: T1, Aromatase; assay: Inhibition of human placental Cytochrome P450 19A1 at 100 nM

| SMILES | inhibition at 0.1 µM (Aromatase [1]) | Ki (Aromatase [2]) | inhibition at 0.25 µM (Aromatase [3]) | inhibition at 0.1 µM (Aromatase [4]) |
| --- | --- | --- | --- | --- |
| C[C@]12CCC(=O)C=C1C[C@H](Cc1ccccc1)[C@@H]1[C@@H]2CC[C@]2(C)C(=O)CC[C@@H]12 | 46.7% | 0.0445 µM | 68.9% | – |
| CC12CCC3C(C1CCC2=O)[C@H](CCc1ccccc1)CC1=CC(=O)CCC13C (stereo not given in full) | 66.1% | 0.0131 µM | 81.6% | – |
| C[C@]12CC[C@H]3[C@@H]([C@H](Cc4ccccc4)CC4=CC(=O)CC[C@@]43C)[C@@H]1CC[C@@H]2O | 59.4% | 0.0395 µM | 72.5% | – |
| C[C@]12CC[C@H]3[C@@H]([C@H](CCc4ccccc4)CC4=CC(=O)CC[C@@]43C)[C@@H]1CC[C@@H]2O | 45.8% | 0.036 µM | 56.7% | – |
| C[C@]12CCC(=O)C=C1C[C@@H](Sc1ccc(N)cc1)[C@@H]1[C@@H]2CC[C@]2(C)C(=O)CC[C@@H]12 | – | – | 83.9% | 70.6% |
| C[C@]12CCC(=O)C=C1C[C@H](CCc1ccccc1)[C@@H]1[C@@H]2CC[C@]2(C)C(=O)CC[C@@H]12 | 55.7% | 0.0402 µM | 67.8% | – |
| CC12CCC3C(C1CCC2=O)[C@H](Cc1ccccc1)CC1=CC(=O)CCC13C (stereo not given in full) | 64.3% | 0.0189 µM | 81.5% | – |
